Experimental data published in patent US10314823B2, “Substituted 1,2-dihydro-3H-pyrrolo[1,2-c]imidazol-3-one antibacterial compounds” (IDORSIA PHARMACEUTICALS LTD, priority 2015, dated 2019).
≈ marks a conversion by molar mass, not a printed value.

Assays:
Assay in all cases: Bacterial growth minimal inhibitory concentration (CLSI broth microdilution)
Type in all cases: cell-based
E. coli ATCC25922 = details: Escherichia coli, ATCC25922; quinolone-sensitive strain; cation-adjusted Mueller-Hinton Broth
Experimental: (§1) Minimal Inhibitory Concentrations (MICs; mg/L) were determined in cation-adjusted Mueller-Hinton Broth by a microdilution method following the description given in “Methods for Dilution Antimicrobial Susceptibility Tests for Bacteria that Grow Aerobically”, Approved standard, 7th ed., Clinical and Laboratory Standards Institute (CLSI) Document M7-A7, Wayne, Pa., USA (2006).
(§2) All Reference Example compounds were tested against several Gram-negative bacteria. K. pneumoniae A-651 is a multiply resistant strain (in particular quinolone-resistant), while E. coli ATCC25922 and P. aeruginosa ATCC27853 are quinolone-sensitive strains. The corresponding antibacterial test results are given in Table 1 hereafter (MICs in mg/L).

P. aeruginosa ATCC27853 = details: Pseudomonas aeruginosa, ATCC27853; quinolone-sensitive strain; cation-adjusted Mueller-Hinton Broth
Experimental: as §1, §2

K. pneumoniae A-651 = details: Klebsiella pneumoniae, A651; multiply resistant strain (in particular quinolone-resistant); cation-adjusted Mueller-Hinton Broth
Experimental: as §1, §2

| Compound | MIC (E. coli ATCC25922) | MIC (P. aeruginosa ATCC27853) | MIC (K. pneumoniae A-651) |
| --- | --- | --- | --- |
| CN1CC(F)(C#CC#Cc2cc3n(c2)C(=O)N(CC[C@](C)(C(=O)NO)S(C)(=O)=O)C3)C1 [Example 33, (2R)-4-(6-((3-fluoro-1-methylazetidin-3-yl)buta-1,3-diyn-1-yl)-3-oxo-1H-pyrrolo[1,2-c]imidazol-2(3H)-yl)-N-hydroxy-2-methyl-2-(methylsulfonyl)butanamide] | 0.25 µg/mL (≈ 0.555 µM) | 2 µg/mL (≈ 4.44 µM) | 0.25 µg/mL (≈ 0.555 µM) |
| CN1CCC(C#CC#Cc2cc3n(c2)C(=O)N(CC[C@](C)(C(=O)NO)S(C)(=O)=O)C3)CC1 [Example 34, (2R)—N-hydroxy-2-methyl-4-(6-((1-methylpiperidin-4-yl)buta-1,3-diyn-1-yl)-3-oxo-1H-pyrrolo[1,2-c]imidazol-2(3H)-yl)-2-(methylsulfonyl)butanamide] | 4 µg/mL (≈ 8.69 µM) | 1 µg/mL (≈ 2.17 µM) | 4 µg/mL (≈ 8.69 µM) |
| C[C@@](CCN1Cc2cc(C#CC#CC3CCN(C4COC4)CC3)cn2C1=O)(C(=O)NO)S(C)(=O)=O [Example 35, (2R)—N-hydroxy-2-methyl-2-(methylsulfonyl)-4-(6-((1-(oxetan-3-yl)piperidin-4-yl)buta-1,3-diyn-1-yl)-3-oxo-1H-pyrrolo[1,2-c]imidazol-2(3H)-yl)butanamide] | 0.5 µg/mL (≈ 0.995 µM) | 2 µg/mL (≈ 3.98 µM) | 1 µg/mL (≈ 1.99 µM) |
| C[C@@](CCN1Cc2cc(C#Cc3ccc(CN4CC[C@H](O)C(F)(F)C4)cc3)cn2C1=O)(C(=O)NO)S(C)(=O)=O [Example 37, (2R)-4-(6-((4-(((S)-3,3-difluoro-4-hydroxypiperidin-1-yl)methyl)phenyl)ethynyl)-3-oxo-1H-pyrrolo[1,2-c]imidazol-2(3H)-yl)-N-hydroxy-2-methyl-2-(methylsulfonyl)butanamide] | 0.5 µg/mL (≈ 0.886 µM) | 2 µg/mL (≈ 3.54 µM) | 0.5 µg/mL (≈ 0.886 µM) |
| CNC1(C#CC#Cc2cc3n(c2)C(=O)N(CC[C@](C)(C(=O)NO)S(C)(=O)=O)C3)CC1 [Example 38, (2R)—N-hydroxy-2-methyl-4-(6-((1-(methylamino)cyclopropyl)buta-1,3-diyn-1-yl)-3-oxo-1H-pyrrolo[1,2-c]imidazol-2(3H)-yl)-2-(methylsulfonyl)butanamide] | 0.063 µg/mL (≈ 0.146 µM) | 0.5 µg/mL (≈ 1.16 µM) | 0.25 µg/mL (≈ 0.578 µM) |
| CN1CC(OC(=O)NCC#CC#Cc2cc3n(c2)C(=O)N(CC[C@](C)(C(=O)NO)S(C)(=O)=O)C3)C1 [Example 39, 1-methylazetidin-3-yl (3R)-(5-(2-(4-(hydroxyamino)-3-methyl-3-(methylsulfonyl)-4-oxobutyl)-3-oxo-2,3-dihydro-1H-pyrrolo[1,2-c]imidazol-6-yl)penta-2,4-diyn-1-yl)carbamate] | 8 µg/mL (≈ 15.8 µM) | 4 µg/mL (≈ 7.91 µM) | 4 µg/mL (≈ 7.91 µM) |
| C[C@@](CCN1Cc2cc(C#CC#CCN3CCC(O)CC3)cn2C1=O)(C(=O)NO)S(C)(=O)=O [Example 40, (2R)—N-hydroxy-4-(6-(5-(4-hydroxypiperidin-1-yl)penta-1,3-diyn-1-yl)-3-oxo-1H-pyrrolo[1,2-c]imidazol-2(3H)-yl)-2-methyl-2-(methylsulfonyl)butanamide] | 2 µg/mL (≈ 4.2 µM) | 2 µg/mL (≈ 4.2 µM) | 2 µg/mL (≈ 4.2 µM) |
| C[C@@](CCN1Cc2cc(C#CC#CC3CN(CCO)C3)cn2C1=O)(C(=O)NO)S(C)(=O)=O [Example 41, (2R)—N-hydroxy-4-(6-((1-(2-hydroxyethyl)azetidin-3-yl)buta-1,3-diyn-1-yl)-3-oxo-1H-pyrrolo[1,2-c]imidazol-2(3H)-yl)-2-methyl-2-(methylsulfonyl)butanamide] | 0.5 µg/mL (≈ 1.08 µM) | 0.5 µg/mL (≈ 1.08 µM) | 0.5 µg/mL (≈ 1.08 µM) |
| C[C@@](CCN1Cc2cc(C#Cc3ccc(CN4CC(O)C4)cc3)cn2C1=O)(C(=O)NO)S(C)(=O)=O [Example 43, (2R)—N-hydroxy-4-(6-((4-((3-hydroxyazetidin-1-yl)methyl)phenyl)ethynyl)-3-oxo-1H-pyrrolo[1,2-c]imidazol-2(3H)-yl)-2-methyl-2-(methylsulfonyl)butanamide] | 0.5 µg/mL (≈ 0.999 µM) | 0.5 µg/mL (≈ 0.999 µM) | 2 µg/mL (≈ 4 µM) |
| CN(C)C[C@@H]1C[C@H]1C#CC#Cc1cc2n(c1)C(=O)N(CC[C@](C)(C(=O)NO)S(C)(=O)=O)C2 [Example 44, (2R)-4-(6-(((1R,2R)-2-((dimethylamino)methyl)cyclopropyl)buta-1,3-diyn-1-yl)-3-oxo-1H-pyrrolo[1,2-c]imidazol-2(3H)-yl)-N-hydroxy-2-methyl-2-(methylsulfonyl)butanamide] | 2 µg/mL (≈ 4.34 µM) | 4 µg/mL (≈ 8.69 µM) | 2 µg/mL (≈ 4.34 µM) |
| C[C@@](CCN1Cc2cc(C#CC#CC3(O)CCN(C4COC4)CC3)cn2C1=O)(C(=O)NO)S(C)(=O)=O [Example 45, (2R)—N-hydroxy-4-(6-((4-hydroxy-1-(oxetan-3-yl)piperidin-4-yl)buta-1,3-diyn-1-yl)-3-oxo-1H-pyrrolo[1,2-c]imidazol-2(3H)-yl)-2-methyl-2-(methylsulfonyl)butanamide] | 8 µg/mL (≈ 15.4 µM) | > 8 µg/mL | 8 µg/mL (≈ 15.4 µM) |
| CN1CCC(F)(C#CC#Cc2cc3n(c2)C(=O)N(CC[C@](C)(C(=O)NO)S(C)(=O)=O)C3)CC1 [Example 46, (2R)-4-(6-((4-fluoro-1-methylpiperidin-4-yl)buta-1,3-diyn-1-yl)-3-oxo-1H-pyrrolo[1,2-c]imidazol-2(3H)-yl)-N-hydroxy-2-methyl-2-(methylsulfonyl)butanamide] | 0.5 µg/mL (≈ 1.04 µM) | 1 µg/mL (≈ 2.09 µM) | 1 µg/mL (≈ 2.09 µM) |
| C[C@@](CCN1Cc2cc(C#CC#CC3(F)CCN(C4COC4)CC3)cn2C1=O)(C(=O)NO)S(C)(=O)=O [Example 47, (2R)-4-(6-((4-fluoro-1-(oxetan-3-yl)piperidin-4-yl)buta-1,3-diyn-1-yl)-3-oxo-1H-pyrrolo[1,2-c]imidazol-2(3H)-yl)-N-hydroxy-2-methyl-2-(methylsulfonyl)butanamide] | 0.5 µg/mL (≈ 0.96 µM) | 2 µg/mL (≈ 3.84 µM) | 2 µg/mL (≈ 3.84 µM) |
| CN1CCC(O)(C#CC#Cc2cc3n(c2)C(=O)N(CC[C@](C)(C(=O)NO)S(C)(=O)=O)C3)CC1 [Example 48, (2R)—N-hydroxy-4-(6-((4-hydroxy-1-methylpiperidin-4-yl)buta-1,3-diyn-1-yl)-3-oxo-1H-pyrrolo[1,2-c]imidazol-2(3H)-yl)-2-methyl-2-(methylsulfonyl)butanamide] | > 8 µg/mL | 4 µg/mL (≈ 8.39 µM) | > 8 µg/mL |
| C[C@@](CCN1Cc2cc(C#Cc3ccc(CN4CC(F)C4)cc3)cn2C1=O)(C(=O)NO)S(C)(=O)=O [Example 49, (2R)-4-(6-((4-((3-fluoroazetidin-1-yl)methyl)phenyl)ethynyl)-3-oxo-1H-pyrrolo[1,2-c]imidazol-2(3H)-yl)-N-hydroxy-2-methyl-2-(methylsulfonyl)butanamide] | < 0.063 µg/mL | 1 µg/mL (≈ 1.99 µM) | 0.125 µg/mL (≈ 0.249 µM) |
| CN1CCN(C(=O)OCC#CC#Cc2cc3n(c2)C(=O)N(CC[C@](C)(C(=O)NO)S(C)(=O)=O)C3)CC1 [Example 50, (3R)-5-(2-(4-(hydroxyamino)-3-methyl-3-(methylsulfonyl)-4-oxobutyl)-3-oxo-2,3-dihydro-1H-pyrrolo[1,2-c]imidazol-6-yl)penta-2,4-diyn-1-yl 4-methylpiperazine-1-carboxylate] | 1 µg/mL (≈ 1.92 µM) | 2 µg/mL (≈ 3.85 µM) | 1 µg/mL (≈ 1.92 µM) |
| C[C@@](CCN1Cc2cc(C#CC#CC3CN(C[C@@H](O)CO)C3)cn2C1=O)(C(=O)NO)S(C)(=O)=O [Example 51, (2R)-4-(6-((1-((R)-2,3-dihydroxypropyl)azetidin-3-yl)buta-1,3-diyn-1-yl)-3-oxo-1H-pyrrolo[1,2-c]imidazol-2(3H)-yl)-N-hydroxy-2-methyl-2-(methylsulfonyl)butanamide] | 1 µg/mL (≈ 2.03 µM) | 1 µg/mL (≈ 2.03 µM) | 4 µg/mL (≈ 8.12 µM) |
